This is an account of results in patent US20230150974A1 (Foghorn Therapeutics Inc., priority 2020, published 2023).

Test [1] deals with T1, HiBiT-BRM (Homo sapiens, UniProt P51531).
T1 construct: expressed in transfected cells
As to the kind of experiment: HiBiT-BRM cell-based degradation assay (Nano-Glo HiBiT Lytic Detection). As to conditions: HeLa cells expressing HiBiT-BRM, 24 h; for DC50: read-out: BRM HiBit Degradation IC50. The procedure, abridged:
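Luminescence from HiBiT–LgBiT complementation in lysates of a stable HiBiT-BRM HeLa line measured after 24 h compound exposure. Degradation expressed as percent relative to DMSO-treated cells and cells given 2 μM of a known BRM/BRG1 degrader.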
A general note: With HiBiT, luminescence reflects the tagged protein that the partner subunit can reach.

The target of test [2] is T2, HiBit-BRG1 (Homo sapiens, UniProt P51532).
T2 construct: expressed in transfected cells
T2 sequence (P51532 whole entry): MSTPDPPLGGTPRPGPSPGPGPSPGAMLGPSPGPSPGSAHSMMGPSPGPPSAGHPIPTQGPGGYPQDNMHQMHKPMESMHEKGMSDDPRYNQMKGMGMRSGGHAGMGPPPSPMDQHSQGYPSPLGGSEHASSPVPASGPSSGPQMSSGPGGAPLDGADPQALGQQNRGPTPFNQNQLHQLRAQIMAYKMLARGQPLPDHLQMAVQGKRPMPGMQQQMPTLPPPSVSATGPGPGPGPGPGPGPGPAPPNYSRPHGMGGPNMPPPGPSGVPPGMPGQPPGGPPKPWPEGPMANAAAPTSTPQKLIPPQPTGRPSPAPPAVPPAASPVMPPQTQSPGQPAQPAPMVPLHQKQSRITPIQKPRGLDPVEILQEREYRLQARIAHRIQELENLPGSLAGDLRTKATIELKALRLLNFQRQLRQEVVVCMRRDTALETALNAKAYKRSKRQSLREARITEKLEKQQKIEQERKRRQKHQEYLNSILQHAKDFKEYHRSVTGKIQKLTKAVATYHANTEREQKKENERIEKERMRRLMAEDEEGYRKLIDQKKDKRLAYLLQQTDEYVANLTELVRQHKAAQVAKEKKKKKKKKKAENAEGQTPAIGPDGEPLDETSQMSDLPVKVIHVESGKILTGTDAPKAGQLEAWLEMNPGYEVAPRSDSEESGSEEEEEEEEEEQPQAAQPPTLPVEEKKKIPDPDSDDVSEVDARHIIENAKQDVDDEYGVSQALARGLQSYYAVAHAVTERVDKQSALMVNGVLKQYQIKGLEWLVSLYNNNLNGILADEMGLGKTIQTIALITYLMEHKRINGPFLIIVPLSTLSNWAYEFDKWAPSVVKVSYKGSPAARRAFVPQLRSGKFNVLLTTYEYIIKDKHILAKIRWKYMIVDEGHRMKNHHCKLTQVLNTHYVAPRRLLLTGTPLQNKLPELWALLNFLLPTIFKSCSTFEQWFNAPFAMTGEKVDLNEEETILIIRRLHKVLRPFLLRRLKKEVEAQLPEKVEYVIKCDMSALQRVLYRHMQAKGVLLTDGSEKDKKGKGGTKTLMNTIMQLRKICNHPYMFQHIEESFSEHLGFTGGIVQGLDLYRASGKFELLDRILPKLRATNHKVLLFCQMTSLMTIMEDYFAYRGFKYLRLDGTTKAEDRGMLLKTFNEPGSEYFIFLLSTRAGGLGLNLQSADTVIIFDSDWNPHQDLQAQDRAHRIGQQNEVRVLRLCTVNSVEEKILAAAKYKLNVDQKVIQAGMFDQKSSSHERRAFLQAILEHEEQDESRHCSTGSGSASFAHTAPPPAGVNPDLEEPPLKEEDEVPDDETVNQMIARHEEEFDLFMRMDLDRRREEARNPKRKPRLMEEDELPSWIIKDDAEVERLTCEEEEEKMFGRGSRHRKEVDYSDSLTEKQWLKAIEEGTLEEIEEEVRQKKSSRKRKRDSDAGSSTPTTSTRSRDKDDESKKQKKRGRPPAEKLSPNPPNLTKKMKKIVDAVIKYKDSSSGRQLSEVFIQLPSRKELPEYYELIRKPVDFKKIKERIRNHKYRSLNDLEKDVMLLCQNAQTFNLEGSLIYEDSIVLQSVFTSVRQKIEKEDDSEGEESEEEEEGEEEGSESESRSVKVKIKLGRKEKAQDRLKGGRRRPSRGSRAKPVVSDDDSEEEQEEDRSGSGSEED
The test is described as follows: HiBit-BRG1 cell-based degradation assay (Nano-Glo HiBiT Lytic Detection). As to conditions: HeLa cells expressing HiBit-BRG1 and LgBit, 24 h; for DC50: read-out: BRG1 HiBit Degradation IC50; for Dmax: read-out: BRG1 HiBit Degradation Maximum (%). The procedure, abridged:
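Luminescence from Nano-Glo HiBiT lytic detection, read after 24 h compound exposure, scored degradation in a stable HeLa HiBiT-BRG1/LgBit line seeded at 5000 cells/well. DMSO wells defined 0% and 2 μM known BRM/BRG1 degrader wells defined full degradation.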

T1 sequence (P51531 whole entry): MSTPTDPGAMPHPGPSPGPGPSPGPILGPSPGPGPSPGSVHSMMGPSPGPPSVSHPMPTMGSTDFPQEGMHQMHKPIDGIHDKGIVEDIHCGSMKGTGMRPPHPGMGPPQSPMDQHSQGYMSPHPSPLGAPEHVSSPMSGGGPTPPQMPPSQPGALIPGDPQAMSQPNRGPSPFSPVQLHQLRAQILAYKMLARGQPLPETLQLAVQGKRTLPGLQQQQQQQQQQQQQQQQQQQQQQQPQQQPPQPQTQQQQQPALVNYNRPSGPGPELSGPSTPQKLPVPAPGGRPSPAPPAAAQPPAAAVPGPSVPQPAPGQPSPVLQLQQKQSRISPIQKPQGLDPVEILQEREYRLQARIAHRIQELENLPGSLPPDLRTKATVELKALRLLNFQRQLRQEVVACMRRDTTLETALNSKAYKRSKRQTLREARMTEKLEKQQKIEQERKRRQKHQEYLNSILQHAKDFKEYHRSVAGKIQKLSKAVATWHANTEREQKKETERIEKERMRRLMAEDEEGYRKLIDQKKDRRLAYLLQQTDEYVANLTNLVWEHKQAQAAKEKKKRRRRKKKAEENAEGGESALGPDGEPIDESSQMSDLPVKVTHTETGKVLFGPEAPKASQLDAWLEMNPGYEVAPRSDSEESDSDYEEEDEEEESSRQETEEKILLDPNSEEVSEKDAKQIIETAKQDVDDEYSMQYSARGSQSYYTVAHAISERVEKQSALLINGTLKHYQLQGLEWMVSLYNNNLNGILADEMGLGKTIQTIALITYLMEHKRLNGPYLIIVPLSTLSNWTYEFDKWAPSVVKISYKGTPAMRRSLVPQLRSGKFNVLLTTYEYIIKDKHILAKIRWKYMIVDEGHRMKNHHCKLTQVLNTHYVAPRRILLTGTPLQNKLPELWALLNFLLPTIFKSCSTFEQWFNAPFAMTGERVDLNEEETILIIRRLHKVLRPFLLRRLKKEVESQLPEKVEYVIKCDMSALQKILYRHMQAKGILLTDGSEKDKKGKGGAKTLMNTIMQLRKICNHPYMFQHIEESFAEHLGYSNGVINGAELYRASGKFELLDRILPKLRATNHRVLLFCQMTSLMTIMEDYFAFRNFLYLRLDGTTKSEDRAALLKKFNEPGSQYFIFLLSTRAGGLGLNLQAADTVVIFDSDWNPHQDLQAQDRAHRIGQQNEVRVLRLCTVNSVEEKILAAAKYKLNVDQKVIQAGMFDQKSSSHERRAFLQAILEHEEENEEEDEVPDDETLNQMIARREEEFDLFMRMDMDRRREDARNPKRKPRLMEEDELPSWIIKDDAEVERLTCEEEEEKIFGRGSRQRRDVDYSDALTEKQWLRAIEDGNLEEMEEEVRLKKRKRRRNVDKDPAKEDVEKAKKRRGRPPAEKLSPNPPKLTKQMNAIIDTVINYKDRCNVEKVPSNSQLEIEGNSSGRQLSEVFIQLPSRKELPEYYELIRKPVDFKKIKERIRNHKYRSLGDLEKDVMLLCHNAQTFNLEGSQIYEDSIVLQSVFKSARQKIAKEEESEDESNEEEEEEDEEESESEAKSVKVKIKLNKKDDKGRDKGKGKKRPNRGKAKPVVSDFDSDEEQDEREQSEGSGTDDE

As to `Cc1ncsc1-c1ccc(CNC(=O)[C@@H]2C[C@@H](O)CN2C(=O)[C@@H](NC(=O)CCN2CC3(C2)CN(C(=O)c2ccc(CCOc4cc(-c5ccccc5O)nnc4N)cc2)C3)C(C)(C)C)cc1` [Compound 200, (2S,4R)-1-((S)-2-(3-(6-(4-(2-((3-amino-6-(2-hydroxyphenyl)pyridazin-4-yl)oxy)ethyl)benzoyl)-2,6-diazaspiro[3.3]heptan-2-yl)propanamido)-3,3-dimethylbutanoyl)-4-hydroxy-N-(4-(4-methylthiazol-5-yl)benzyl)pyrrolidine-2-carboxamide], in test [1], the “BRM HiBit Degradation Maximum (%)” value is on record as “C (“C” indicates maximum degradation <50%)” and the DC50 is over 1000 nM. Besides, in test [2], the DC50 was over 1000 nM and the Dmax is under 50%.
Take `Nc1nnc(-c2ccccc2O)cc1OCCc1ccc(CNCCCC2CN(c3cccc4c3C(=O)N(C3CCC(=O)NC3=O)C4=O)C2)cc1` (stereo not shown) [Compound 114, 4-(3-(3-((4-(2-((3-amino-6-(2-hydroxyphenyl)pyridazin-4-yl)oxy)ethyl)benzyl)amino)propyl)azetidin-1-yl)-2-(2,6-dioxopiperidin-3-yl)isoindoline-1,3-dione]: in test [1], the “BRM HiBit Degradation Maximum (%)” value was “B (“B” indicates maximum degradation ≥50%)” and the DC50 is over 10 nM. Moreover, in test [2], the DC50 was over 1000 nM and the Dmax is over 50%.
`Nc1nnc(-c2ccccc2O)cc1OCCc1ccc(CNC(=O)CCCOc2cccc3c2C(=O)N(C2CCC(=O)NC2=O)C3=O)cc1` (stereo not shown) [Compound 65, N-[[4-(2-[[3-amino-6-(2-hydroxyphenyl)pyridazin-4-yl]oxy]ethyl)phenyl]methyl]-4-[[2-(2,6-dioxopiperidin-3-yl)-1,3-dioxoisoindol-4-yl]oxy]butanamide]: in test [1], the “BRM HiBit Degradation Maximum (%)” value is listed as “C (“C” indicates maximum degradation <50%)” and the DC50 is over 1000 nM. Further, in test [2], the DC50 was over 1000 nM and the Dmax was under 50%.
With `Cc1ncsc1-c1ccc([C@H](C)NC(=O)[C@@H]2C[C@@H](O)CN2C(=O)[C@@H](NC(=O)CN2CCC3(CCN(CCC(=O)NCc4ccc(CCOc5cc(-c6ccccc6O)nnc5N)cc4)CC3)CC2)C(C)(C)C)cc1` [Compound 267, (2S,4R)-1-((S)-2-(2-(9-(3-((4-(2-((3-amino-6-(2-hydroxyphenyl)pyridazin-4-yl)oxy)ethyl)benzyl)amino)-3-oxopropyl)-3,9-diazaspiro[5.5]undecan-3-yl)acetamido)-3,3-dimethylbutanoyl)-4-hydroxy-N-((S)-1-(4-(4-methylthiazol-5-yl)phenyl)ethyl)pyrrolidine-2-carboxamide], in test [1], the “BRM HiBit Degradation Maximum (%)” value is given as “A (“A” indicates maximum degradation ≥75%)” and the DC50 was over 1000 nM. Moreover, in test [2], the DC50 was over 1000 nM and the Dmax was under 50%.
As to `Nc1nnc(-c2ccccc2O)cc1OCCc1ccc(CNC(=O)CCCCNc2cccc3nnn(C4CCC(=O)NC4=O)c(=O)c23)cc1` (stereo not shown) [Compound 1, N-(4-(2-((3-amino-6-(2-hydroxyphenyl)pyridazin-4-yl)oxy)ethyl)benzyl)-5-((3-(2,6-dioxopiperidin-3-yl)-4-oxo-3,4-dihydrobenzo[d][1,2,3]triazin-5-yl)amino)pentanamide], the DC50 is over 100 nM in test [1] and over 1000 nM in test [2].
Regarding `Nc1nnc(-c2ccccc2O)cc1OCCc1ccc(CNC(=O)CCCCCCCCNc2ccc3c(c2)C(=O)N(C2CCC(=O)NC2=O)C3=O)cc1` (stereo not shown) [Compound 73, N-(4-(2-((3-amino-6-(2-hydroxyphenyl)pyridazin-4-yl)oxy)ethyl)benzyl)-9-((2-(2,6-dioxopiperidin-3-yl)-1,3-dioxoisoindolin-5-yl)amino)nonanamide], in test [1], the “BRM HiBit Degradation Maximum (%)” value is given as “C (“C” indicates maximum degradation <50%)” and the DC50 is over 1000 nM. Further, in test [2], the DC50 is over 1000 nM and the Dmax was under 50%.
